The record followed here is paper PMC10029155, “Harnessing protein sensing ability of electrochemical biosensors via a controlled peptide receptor–electrode interface” (Journal of Nanobiotechnology, 2023).

Assay [1] concerns the target T1, cathepsin B (Homo sapiens, UniProt P07858).
T1 construct: Cathepsin B proteins, purified from human liver (~ 27.5 kDa, > 95% purity); purchased ENZO (NY, USA); host or cells: purified from human liver
The experiment in a line: SWV electrochemical binding to cathepsin B (relative current change, binding constant). Conditions: for relative binding affinity to cathepsin B (specificity): 125 nM protein, peptide 50 μM or phage ~10^12 PFU/mL immobilized.
Experimental: A conventional three-electrode system including an Au working electrode (diameter: 5 mm, surface area: 19.6 mm^2), a Pt counter electrode, and an Ag/AgCl reference electrode, was used for the electrochemical measurements. The EIS, CV, and SWV measurements were conducted in the presence of 2.5 mM ferro/ferricyanide in 1 M KNO3 using a CHI 660E instrument (CH Instruments, Austin, TX, USA) at 25 °C. The EIS measurements were carried out by applying a 10 mV signal with a frequency ranging from 0.01 Hz to 100 kHz. The CV tests were performed between − 0.6 and 0.6 V (scan range) at a scan rate of 100 mVs^−1. The SWV tests were carried out in the potential range of − 0.4 to 0.6 V with an amplitude of 5 mV, frequency of 10 Hz, and a scan interval of 4 mV. The relative current change (ΔI%) was obtained by considering that the peak current decreased after the immobilization of the peptides and/or phages and cathepsin B protein interaction using the following equation:1 ΔI%=I0-I/I0×100 where I0 refers to phage-on-a-sensor, peptide-on-a-sensor, or peptide-on-a-AuNPs/MXene sensor and/or peptide oxidation current before cathepsin B introduction, and I refers to Au-protein oxidation current after cathepsin B introduction.

A further assay has as its system cathepsin S (CTSS). The experiment in a line: SWV specificity test against CTSS. The assay is classed as binding. Conditions: 125 nM protein. Here is the method: (§1) A conventional three-electrode system including an Au working electrode (diameter: 5 mm, surface area: 19.6 mm^2), a Pt counter electrode, and an Ag/AgCl reference electrode, was used for the electrochemical measurements. The EIS, CV, and SWV measurements were conducted in the presence of 2.5 mM ferro/ferricyanide in 1 M KNO3 using a CHI 660E instrument (CH Instruments, Austin, TX, USA) at 25 °C. The EIS measurements were carried out by applying a 10 mV signal with a frequency ranging from 0.01 Hz to 100 kHz. The CV tests were performed between − 0.6 and 0.6 V (scan range) at a scan rate of 100 mVs^−1. […]
(§2) The electrochemical response of the phage sensor for cathepsin B detection was evaluated by the specificity analysis of the developed phage. […] The relative binding affinity of the phage-on-a-sensor with different phage concentrations was measured. […] The binding constants of the developed phage sensor and the relative current change (ΔI%) with different cathepsin B concentrations were measured by SWV.
(§3) To select potential high-affinity peptides from the phage clones, the five synthetic peptides were immobilized on the Au electrode via streptavidin–biotin and MUA-EDC/NHS coupling methods. Each preparation step of the peptide sensor was recorded using CV, EIS, and SWV (Additional file 1: Fig. S3a–c), and the relative binding affinities for cathepsin B were measured by SWV. […]

Another assay relates to BSA. The experiment in a line: SWV specificity test against BSA (control). Conditions: 125 nM protein, negative control protein. Format: binding. Here is the method:
as §1, §2, §3

For another assay, the system named is cathepsin L1 (CTSL1). The experiment in a line: SWV specificity test against CTSL1. Conditions: 125 nM protein. The assay is classed as binding. As for the experimental part: as §1, §2, §3
In assay [2] the target is T1, cathepsin B. The experiment in a line: ELISA binding of peptide-displaying phage clones to immobilized biotinylated cathepsin B. Conditions: 405 nm. As for the experimental part:
A 96 well streptavidin-coated microplate was washed three times with PBS, and the biotinylated cathepsin B was immobilized on it with mild shaking at 25 °C for 1 h. The unbound proteins were removed and blocked with a blocking buffer (5% BSA in NaHCO3) at 25 °C for 1 h. The wells were washed six times with 0.1% PBST, and 100 µL of the amplified phages (10^11 PFU/mL), i.e., the capture receptors, were added and incubated for 1 h at 25 °C. After washing six times with PBST again, the HRP-conjugated anti-M13 monoclonal antibodies (1:5000 dilution with blocking buffer), i.e., the detecting antibodies, were added and incubated at 25 °C for 1 h. The residual solution was discarded, and the microplate was washed again with the same buffer. Freshly prepared HRP substrate (ABTS) was added, and the absorbance was measured at 405 nm using a Multiskan FC microplate photometer (Thermo Scientific, Waltham, MA, USA).
The binding affinities of the selected phage clones for the immobilized cathepsin B were tested by ELISA. For these experiments, 250 nM of cathepsin B or the same amount of BSA as a negative control was immobilized on a well, followed by 10^11 PFU/mL of phage addition. The relative binding affinity of each phage was detected using HRP-conjugated M13 antibodies. […] The CTSB 4-1 clone was the only phage with a high binding affinity to cathepsin B, motivating further characterization of its binding interaction to confirm its specific binding to cathepsin B with increasing cathepsin B concentration (Fig. 2c).
Background: In an ELISA, binding on a coated surface is turned into a signal by an enzyme label.

Regarding HRHRRHRHRKHHK - biotin [CTSB BP4], the “relative binding affinity to cathepsin B (specificity)” value at cathepsin B [1] is listed as “much lower binding affinity for cathepsin B than for CTSB BP3”. Besides, in the assay with cathepsin S (CTSS), the “relative binding affinity to CTSS (specificity)” value is “non-specific binding affinity”. Besides, in the assay on BSA, the “relative binding affinity to BSA (specificity)” value was “non-specific binding affinity”. The “relative binding affinity to CTSL1 (specificity)” value with cathepsin L1 (CTSL1) is “non-specific binding affinity”.
“WDMWPSMDWKAE [CTSB 4-1, M13 phage clone displaying …, identified in four rounds of the biopanning]”: the “relative binding affinity for cathepsin B (ELISA)” value on cathepsin B [2] (250 nM cathepsin B immobilized, 10^11 PFU/mL phage, HRP-conjugated anti-M13 antibody, ABTS, 25 °C, 1 h, triplicate) is reported as “strong cathepsin B binding”. Further, on cathepsin B [2] (cathepsin B 3.906 to 250 nM, ELISA), the “dose response of binding with cathepsin B concentration” value was “dose-dependent binding affinity with increasing cathepsin B concentration”. Also, at cathepsin B [2] (cathepsin B 6.25 to 250 nM, ELISA, printed in picture Fig. 2c), the SC50 was determined as 44.27 nM.
Take WDMWPSMDWKAEK - biotin [CTSB BP1]: the “relative binding affinity for all the tested proteins, comparison between peptides” value on cathepsin B [1] (125 nM cathepsin B, CTSS, CTSL1 or BSA, peptide 50 μM) was “comparable to those of CTSB BP2 and CTSB BP5”. Also, the “relative binding affinity to cathepsin B (specificity)” value on cathepsin B [1] is listed as “did not bind to cathepsin B”.
